ChEMBL document CHEMBL1201862, “PubChem BioAssay data set” (2004)
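1) Cells in 96-well plates. 2) Compound, 48 h, 5 concentrations. 3) Linear interpolation between surrounding doses. 4) Unreached endpoint = highest concentration. Here, GI50 denotes the concentration required for 50% inhibition of growth.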 Activity calls are given as the source filed them. Cut-off read from the data, not from the text of the source: active = GI50 up to about 1.1 µM and inactive = higher.

Legend:
Assay in all cases: NCI tumour cell line growth inhibition, 48 h
786-0 = system: 786-0
NCI-H460 = system: NCI-H460
LOX IMVI = system: LOX IMVI
SF-268 = system: SF-268
HL-60 = system: HL-60
U-251 = system: U-251
SK-OV-3 = system: SK-OV-3
OVCAR-8 = system: OVCAR-8
SK-MEL-5 = system: SK-MEL-5
RXF 393 = system: RXF 393
OVCAR-4 = system: OVCAR-4
HCT-116 = system: HCT-116
SNB-19 = system: SNB-19
KM12 = system: KM12
UACC-257 = system: UACC-257
NCI-H522 = system: NCI-H522

Row | SMILES | GI50 (786-0) | GI50 (NCI-H460) | GI50 (LOX IMVI) | GI50 (SF-268) | GI50 (HL-60) | GI50 (U-251) | GI50 (SK-OV-3) | GI50 (OVCAR-8) | GI50 (SK-MEL-5) | GI50 (RXF 393) | GI50 (OVCAR-4) | GI50 (HCT-116) | GI50 (SNB-19) | GI50 (KM12) | GI50 (UACC-257) | GI50 (NCI-H522)
1 | CC[P+]1(c2ccccc2)CCCCC1 | > 100 µM (inactive) | > 100 µM (inactive) | > 100 µM (inactive) | > 100 µM (inactive) | > 100 µM (inactive) | > 100 µM (inactive) | > 100 µM (inactive) | > 100 µM (inactive) | > 100 µM (inactive) | > 100 µM (inactive) | > 100 µM (inactive) | > 100 µM (inactive) | > 100 µM (inactive) | > 100 µM (inactive) | > 100 µM (inactive) | –
2 | CCCC(C(=O)OC)C1N/C(=N/C#N)N(Cc2ccccc2)C1=O (stereo unspecified) | > 100 µM (inactive) | > 100 µM (inactive) | > 100 µM (inactive) | > 100 µM (inactive) | > 100 µM (inactive) | > 100 µM (inactive) | > 100 µM (inactive) | > 100 µM (inactive) | > 100 µM (inactive) | > 100 µM (inactive) | > 100 µM (inactive) | > 100 µM (inactive) | > 100 µM (inactive) | > 100 µM (inactive) | > 100 µM (inactive) | > 100 µM (inactive)
3 | COc1ccccc1N1C(=O)C2c3[nH]c4ccccc4c3C3CCC(C(C)(C)C)CC3C2C1=O (stereo unspecified) | > 100 µM (inactive) | – | – | > 100 µM (inactive) | > 100 µM (inactive) | > 100 µM (inactive) | > 100 µM (inactive) | > 100 µM (inactive) | > 100 µM (inactive) | > 100 µM (inactive) | > 100 µM (inactive) | > 100 µM (inactive) | > 100 µM (inactive) | – | > 100 µM (inactive) | > 100 µM (inactive)
4 | O=C1NC(=O)/C(=N\c2cccc3c(=O)[nH][nH]c(=O)c23)C(c2nc3ccccc3s2)C1=O (stereo unspecified) | > 100 µM (inactive) | > 100 µM (inactive) | – | > 100 µM (inactive) | > 100 µM (inactive) | > 100 µM (inactive) | > 100 µM (inactive) | > 100 µM (inactive) | > 100 µM (inactive) | > 100 µM (inactive) | > 100 µM (inactive) | > 100 µM (inactive) | > 100 µM (inactive) | > 100 µM (inactive) | > 100 µM (inactive) | > 100 µM (inactive)
5 | O=C(CC(=O)N1N=C(n2ccc3ccccc32)CC1c1ccccc1)Nc1cccc(Cl)c1 (stereo unspecified) | > 100 µM (inactive) | > 100 µM (inactive) | 66.4 µM (inactive) | > 100 µM (inactive) | > 100 µM (inactive) | > 100 µM (inactive) | > 100 µM (inactive) | > 100 µM (inactive) | – | > 100 µM (inactive) | > 100 µM (inactive) | > 100 µM (inactive) | > 100 µM (inactive) | > 100 µM (inactive) | > 100 µM (inactive) | > 100 µM (inactive)
6 | O=C1CC(C2(O)C(=O)Nc3ccc([N+](=O)[O-])cc32)c2ccccc21 (stereo unspecified) | 15.8 µM (inactive) | 16.3 µM (inactive) | 16.8 µM (inactive) | 18.5 µM (inactive) | 14.8 µM (inactive) | 17.7 µM (inactive) | 36.5 µM (inactive) | 66.4 µM (inactive) | 27.7 µM (inactive) | 24.8 µM (inactive) | 20 µM (inactive) | 31.3 µM (inactive) | > 100 µM (inactive) | 35.4 µM (inactive) | 47.1 µM (inactive) | 11.2 µM (inactive)
7 | O=c1[nH]cc(COCCO)c(=O)[nH]1 | > 100 µM (inactive) | > 100 µM (inactive) | > 100 µM (inactive) | > 100 µM (inactive) | > 100 µM (inactive) | > 100 µM (inactive) | > 100 µM (inactive) | > 100 µM (inactive) | > 100 µM (inactive) | > 100 µM (inactive) | > 100 µM (inactive) | > 100 µM (inactive) | > 100 µM (inactive) | > 100 µM (inactive) | > 100 µM (inactive) | > 100 µM (inactive)
8 | BrC(Br)([P+](c1ccccc1)(c1ccccc1)c1ccccc1)[P+](c1ccccc1)(c1ccccc1)c1ccccc1 | 13.5 µM (inactive) | 22.8 µM (inactive) | 13.2 µM (inactive) | 24 µM (inactive) | 7.94 µM (inactive) | 20.3 µM (inactive) | 38.5 µM (inactive) | 13.1 µM (inactive) | 15.9 µM (inactive) | 11.1 µM (inactive) | 12.1 µM (inactive) | 17.3 µM (inactive) | – | – | 19.5 µM (inactive) | 15 µM (inactive)
9 | Cc1c2ccncc2c(C)c2c1[nH]c1ccc(OCC(F)(F)F)cc12 | 1.47 µM (inactive) | 1.18 µM (inactive) | 1.61 µM (inactive) | 1.55 µM (inactive) | 2.08 µM (inactive) | 1.6 µM (inactive) | 1.82 µM (inactive) | 1.32 µM (inactive) | 1.91 µM (inactive) | 1.9 µM (inactive) | 2.03 µM (inactive) | 1.08 µM (active) | 1.64 µM (inactive) | 1.36 µM (inactive) | 1.89 µM (inactive) | 1.65 µM (inactive)
